Where a SMILES comes first, the peptide text is derived from it. [ ]: non-standard residue; d: D form. The star is where a group is joined. NHCH2CH2OH = OCCN*; For = O=C*
Columns and labels:
[1] = H+/Na+ transport assay of bead-derived peptides (one-point); assay type: biochemical; design: key: relative activity; mean of two control wells = 1.00; conditions: bead-derived peptide solution, EYPC/EYPG LUVs;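 note: relative to parent gramicidin A activity set to 1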
Summary of the method: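 Miniaturized 96-well format. LUVs with entrapped pyranine (1.0 mM) were exposed to peptide for 30 min at RT. Intensities were expressed relative to full lysis by Triton X-100 and no treatment, with control-well mean = 1.00.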

[2] = test system: Streptococcus pyogenes SSI-9; test: Antibacterial activity assay of bead-derived peptides (three concentrations); assay type: cell-based; design: key: +++: inhibition by the 640-fold diluted peptide solution; ++: inhibition by the 160-fold diluted solution; +: inhibition by the 40-fold diluted solution; -: no inhibition; conditions: S. pyogenes, bead-derived peptide solution, three concentrations
Summary of the method: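 Three stock dilutions per peptide (none, 4-fold, 16-fold in DMSO) are screened in 96-well format. The medium is blood-supplemented cation-adjusted MHB, inoculated with 2 × 10^5 CFU S. pyogenes SSI-9. Growth is read as cell precipitation at 18 h, 37 °C.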

[3] = cell viability/%
Summary of the method: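 First, library peptide stocks are diluted 250-fold in RPMI1640 with 10% heat-inactivated FBS. Next, they are mixed with P388 cells to give 1 × 10^4 cells/mL and incubated 92 h at 37 °C, 5% CO2. Finally, viability (%) is scored by WST-1 absorbance at 415 nm.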

In the case of CC(C)C[C@@H](NC(=O)[C@H](Cc1c[nH]c2ccccc12)NC(=O)[C@H](NC(=O)[C@H](Cc1c[nH]c2ccccc12)NC(=O)[C@@H](CC(C)C)NC(=O)[C@@H](NC(=O)[C@H](NC(=O)[C@H](C)NC(=O)[C@H](NC(=O)[C@H](C)NC(=O)CNC(=O)[C@@H](NC=O)C(C)C)[C@H](C)O)C(C)C)C(C)C)[C@H](C)O)C(=O)N[C@@H](Cc1c[nH]c2ccccc12)C(=O)N[C@@H](C(=O)N[C@@H](Cc1c[nH]c2ccccc12)C(=O)NCCO)C(C)C [compound 13245] (For-VGA[dT]A[dV]V[dL]W[dT]W[dL]W[dV]W-NHCH2CH2OH), the “H+/Na+ transport activity normalized against the value of 1 (1.00)” value [1] is reported as 1.07, the antibacterial activity [2] is reported as “-” and the viability [3] is reported as 100%.
